Experimental data reported in ChEMBL document CHEMBL4725325, “Synthesis and biological evaluation of parthenolide derivatives with reduced toxicity as potential inhibitors of the NLRP3 inflammasome” (Bioorg Med Chem Lett, 2020).
Active and inactive are the calls of the source. The calls are words filed in the database; no cut-off is given here.

Assays:
[1] = biological target: NACHT, LRR and PYD domains-containing protein 3 (Mus musculus) (UniProt Q8R4B8); assay: Inhibition of NLRP3 inflammasome in mouse J774.A1 cells assessed as reduction in LPS-induced IL-1beta release at 1 to 10 uM; type: cell-based; details: dose microM 1-10
Sequence of NACHT, LRR and PYD domains-containing protein 3 (Mus musculus) (Q8R4B8 whole entry, the tested form may be a part): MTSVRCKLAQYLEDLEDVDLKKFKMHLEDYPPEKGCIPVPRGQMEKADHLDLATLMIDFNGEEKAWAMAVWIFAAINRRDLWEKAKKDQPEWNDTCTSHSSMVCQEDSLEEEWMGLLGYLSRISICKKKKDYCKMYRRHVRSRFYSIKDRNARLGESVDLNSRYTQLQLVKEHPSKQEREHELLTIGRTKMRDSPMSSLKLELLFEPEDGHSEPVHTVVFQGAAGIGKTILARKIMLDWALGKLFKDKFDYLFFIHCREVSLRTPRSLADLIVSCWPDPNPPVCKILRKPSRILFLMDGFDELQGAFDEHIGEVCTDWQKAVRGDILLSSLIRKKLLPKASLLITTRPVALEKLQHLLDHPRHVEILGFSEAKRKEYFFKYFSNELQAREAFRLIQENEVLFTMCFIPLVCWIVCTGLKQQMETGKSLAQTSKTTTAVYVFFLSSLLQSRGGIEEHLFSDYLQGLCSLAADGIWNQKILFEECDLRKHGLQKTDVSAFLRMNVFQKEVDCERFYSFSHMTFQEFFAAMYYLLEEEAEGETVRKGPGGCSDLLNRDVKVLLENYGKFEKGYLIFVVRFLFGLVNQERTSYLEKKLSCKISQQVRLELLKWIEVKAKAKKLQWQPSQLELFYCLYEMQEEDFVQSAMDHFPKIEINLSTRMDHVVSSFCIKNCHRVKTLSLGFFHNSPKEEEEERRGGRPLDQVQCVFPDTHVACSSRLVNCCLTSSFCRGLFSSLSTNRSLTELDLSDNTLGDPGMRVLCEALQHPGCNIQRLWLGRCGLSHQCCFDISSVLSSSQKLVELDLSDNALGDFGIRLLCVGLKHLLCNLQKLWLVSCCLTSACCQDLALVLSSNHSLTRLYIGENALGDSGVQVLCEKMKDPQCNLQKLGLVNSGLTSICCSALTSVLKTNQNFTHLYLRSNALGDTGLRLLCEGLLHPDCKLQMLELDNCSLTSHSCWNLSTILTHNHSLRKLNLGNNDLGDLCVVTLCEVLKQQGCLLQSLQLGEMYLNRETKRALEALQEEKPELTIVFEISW

[2] = biological target: T1, NACHT, LRR and PYD domains-containing protein 3 (Homo sapiens, UniProt Q96P20); assay: Inhibition of NLRP3 inflammasome in human primary glial cells assessed as reduction in LPS-induced IL-1beta release at 1 to 10 uM; type: cell-based; details: dose microM 1-10
T1 sequence (Q96P20 whole entry, the tested form may be a part): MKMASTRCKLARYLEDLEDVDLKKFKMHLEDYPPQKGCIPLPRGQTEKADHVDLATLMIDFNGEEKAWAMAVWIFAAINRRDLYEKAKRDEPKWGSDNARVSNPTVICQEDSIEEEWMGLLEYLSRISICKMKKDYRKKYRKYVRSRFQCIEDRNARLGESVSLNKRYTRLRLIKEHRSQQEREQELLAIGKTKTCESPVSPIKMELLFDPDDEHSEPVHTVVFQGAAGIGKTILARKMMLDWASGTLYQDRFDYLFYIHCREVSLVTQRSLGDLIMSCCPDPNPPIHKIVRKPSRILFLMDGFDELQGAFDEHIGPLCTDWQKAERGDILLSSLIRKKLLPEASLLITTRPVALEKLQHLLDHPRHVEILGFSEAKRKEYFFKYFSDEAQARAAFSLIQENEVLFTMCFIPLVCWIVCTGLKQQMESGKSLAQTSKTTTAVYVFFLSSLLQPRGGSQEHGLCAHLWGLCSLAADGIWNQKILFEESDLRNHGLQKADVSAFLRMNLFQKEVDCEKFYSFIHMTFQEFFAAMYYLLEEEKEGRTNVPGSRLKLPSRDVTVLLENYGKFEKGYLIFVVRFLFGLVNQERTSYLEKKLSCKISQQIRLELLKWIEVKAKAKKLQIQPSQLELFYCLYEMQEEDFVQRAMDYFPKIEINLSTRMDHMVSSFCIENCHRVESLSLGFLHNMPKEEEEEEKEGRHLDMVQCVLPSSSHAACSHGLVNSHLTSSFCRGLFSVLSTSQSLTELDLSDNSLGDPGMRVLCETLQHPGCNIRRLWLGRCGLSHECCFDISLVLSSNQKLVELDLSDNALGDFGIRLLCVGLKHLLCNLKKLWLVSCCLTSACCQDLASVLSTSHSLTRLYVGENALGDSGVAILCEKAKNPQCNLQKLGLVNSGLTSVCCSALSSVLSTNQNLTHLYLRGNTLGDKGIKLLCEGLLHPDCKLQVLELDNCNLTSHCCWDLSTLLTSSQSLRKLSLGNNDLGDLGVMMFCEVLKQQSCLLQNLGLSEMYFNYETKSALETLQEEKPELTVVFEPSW

[3] = biological target: NACHT, LRR and PYD domains-containing protein 3 (Mus musculus) (UniProt Q8R4B8); assay: Inhibition of NLRP3 inflammasome in mouse J774.A1 cells assessed as reduction in LPS-induced IL-1beta release at 10 uM in presence of PTL/MCL; type: cell-based
[4] = biological target: T1, NACHT, LRR and PYD domains-containing protein 3; assay: Inhibition of NLRP3 inflammasome in human primary glial cells assessed as reduction in LPS-induced IL-1beta release at 10 uM in presence of PTL/MCL; type: cell-based; details: Primary neuron
[5] = biological target: NACHT, LRR and PYD domains-containing protein 3 (Mus musculus, UniProt Q8R4B8); assay: Inhibition of NLRP3 inflammasome in mouse J774.A1 cells assessed as reduction in LPS-induced IL-1beta release; type: cell-based
Sequence of NACHT, LRR and PYD domains-containing protein 3 (Mus musculus, UniProt Q8R4B8) (Q8R4B8 whole entry, the tested form may be a part): as the sequence (Q8R4B8 whole entry, the tested form may be a part) above

[6] = biological target: T1, NACHT, LRR and PYD domains-containing protein 3; assay: Inhibition of NLRP3 inflammasome in human primary glial cells assessed as reduction in LPS-induced IL-1beta release; type: cell-based
[7] = Cytotoxicity against mouse J774.A1 cells; type: cell-based; details: read-out: TC50 (the source's name)
[8] = Cytotoxicity against human HEK-293T cells; type: cell-based; details: read-out: TC50 (the source's name)
[9] = Therapeutic index, ratio of IC50 for cytotoxicity against mouse J774.A1 cells to IC50 for antiinflammatory activity in mouse J774.A1 cells; type: toxicity, cell-based
Mus musculus [10] = assay: In vivo inhibition of NLRP3 in mouse assessed as reduction in LPS-induced IL-1beta release in serum at 30 mg/kg, po; type: functional, organism-based
Mus musculus [11] = assay: In vivo inhibition of NLRP3 in mouse assessed as reduction in LPS-induced IL-1beta release in peritoneal fluid at 30 mg/kg, po; type: functional, organism-based
[12] = biological target: NACHT, LRR and PYD domains-containing protein 3 (Mus musculus) (UniProt Q8R4B8); assay: Inhibition of NLRP3 inflammasome in mouse J774.A1 cells assessed as reduction in LPS-induced IL-1beta release at 10 uM; type: cell-based
[13] = biological target: T1, NACHT, LRR and PYD domains-containing protein 3; assay: Inhibition of NLRP3 inflammasome in human primary glial cells assessed as reduction in LPS-induced IL-1beta release at 10 uM; type: cell-based; details: Primary neuron
[14] = biological target: T1, NACHT, LRR and PYD domains-containing protein 3; assay: Inhibition of NLRP3 inflammasome activation (unknown origin) assessed as reduction in caspase 1 p20 level by Western blot analysis; type: tissue-based; details: Primary neuron, dose microM 0.2-5
[15] = biological target: T1, NACHT, LRR and PYD domains-containing protein 3; assay: Inhibition of NLRP3 inflammasome activation (unknown origin) assessed as reduction in IL-1beta by Western blot analysis; details: dose microM 0.2-5
[16] = biological target: T1, NACHT, LRR and PYD domains-containing protein 3; assay: Inhibition of NLRP3 inflammasome activation (unknown origin) assessed as reduction in proIL-1beta at 0.2 to 5 uM by Western blot analysis; details: dose microM 0.2-5
[17] = biological target: T1, NACHT, LRR and PYD domains-containing protein 3; assay: Inhibition of NLRP3 inflammasome activation (unknown origin) assessed as reduction in procaspase1 at 0.2 to 5 uM by Western blot analysis; details: dose microM 0.2-5
[18] = biological target: T1, NACHT, LRR and PYD domains-containing protein 3; assay: Inhibition of NLRP3 inflammasome activation (unknown origin) assessed as reduction in ASC level at 0.2 to 5 uM by Western blot analysis; details: dose microM 0.2-5

inhibition [1]	inhibition [2]	IC50 [5] [µM]	IC50 [6] [µM]	SMILES	CC50 [7] [µM]	CC50 [8] [µM]	selectivity ratio [9]	also measured
Dose-dependent effect	Dose-dependent effect	–	–	C=C1C(=O)O[C@@H]2[C@H]3C(C)=CCC[C@]3(C)CC[C@@H]12	–	–	–	–
–	–	–	–	CC1=C2CC[C@@](C)(O)[C@@H]2[C@H]2OC(=O)[C@@H](CN(C)CC(=O)Nc3nc4ccc(OC(F)(F)F)cc4s3)[C@@H]2CC1	–	–	–	inhibition [3]: Active; inhibition [4]: Active
Dose-dependent effect	Dose-dependent effect	1.4	1.8	C=C1C(=O)O[C@@H]2[C@H]3O[C@@]3(C)CC/C=C(\C)CC[C@@H]12	14.3	29.9	10.2	inhibition (Mus musculus [10]): Active; inhibition (Mus musculus [11]): Active
–	–	–	–	Nc1nc2ccc(OC(F)(F)F)cc2s1	–	–	–	inhibition [12]: inactive; inhibition [13]: inactive; inhibition [3]: Active; inhibition [4]: Active
–	–	–	–	C/C1=C\CC[C@]2(C)O[C@@H]2[C@H]2OC(=O)[C@@H](CN(C)CC(=O)Nc3nc4ccc(OC(F)(F)F)cc4s3)[C@@H]2CC1	–	–	–	inhibition [3]: Active; inhibition [4]: Active
–	–	0.3	1	C/C1=C\CC[C@]2(C)O[C@@H]2[C@H]2OC(=O)[C@@H](CN(C)CCOc3no[n+]([O-])c3S(=O)(=O)c3ccccc3)[C@@H]2CC1	24.1	69.8	80.3	inhibition (Mus musculus [10]): Active; inhibition (Mus musculus [11]): Active; inhibition [14]: Dose-dependent effect; inhibition [15]: Dose-dependent effect; inhibition [16]: inactive; inhibition [17]: inactive; inhibition [18]: inactive
–	–	0.93	1.9	O=S(=O)(c1ccccc1)c1no[n+]([O-])c1S(=O)(=O)c1ccccc1	11.4	22.4	12.2	–
–	–	0.49	2.3	CC1=C2CC[C@@](C)(O)[C@@H]2[C@H]2OC(=O)[C@@H](CN(C)CCCOc3no[n+]([O-])c3S(=O)(=O)c3ccccc3)[C@@H]2CC1	68.5	106	140	–
Dose-dependent effect	–	–	–	C=C1C(=O)O[C@@H]2/C=C(\C)CC/C=C(\C)CC[C@@H]12	–	–	–	–
Dose-dependent effect	Dose-dependent effect	–	–	C=C1CCC[C@]2(C)CC[C@H]3C(=C)C(=O)O[C@@H]3[C@@H]12	–	–	–	–
–	–	0.4	2.2	C/C1=C\CC[C@]2(C)O[C@@H]2[C@H]2OC(=O)[C@@H](CN(C)CCCOc3no[n+]([O-])c3S(=O)(=O)c3ccccc3)[C@@H]2CC1	66.6	166	166	–
Dose-dependent effect	Dose-dependent effect	2.3	5.9	C=C1C(=O)O[C@H]2[C@H]1CCC(C)=C1CC[C@@](C)(O)[C@@H]12 [MICHELIOLIDE]	21.9	51.7	9.5	–
–	–	0.5	1.7	CC1=C2CC[C@@](C)(O)[C@@H]2[C@H]2OC(=O)[C@@H](CN(C)CCOc3no[n+]([O-])c3S(=O)(=O)c3ccccc3)[C@@H]2CC1	59.5	56.5	119	–
